What was measured:
STAT3 phosphorylation [1] = assay: IL-6-inducible STAT3 phosphorylation in RPMI 8226 cells (Western blot); type: cell-based, human; conditions: IL-6 10 ng/ml
Protocol: FIGS. 3A-C show& that IL-6 induces STAT3 phosphorylation in human multiple myeloma RPMI 8226 cells and curcumin inhibits it. […] U266, RPMI 8226, MM.1S, MM.1R and OCl cells (2×10^6) were lysed, and 30 μg of whole-cell extracts were resolved on 7.5% SDS-PAGE, electrotransferred to a nitrocellulose membrane, and probed for phosphorylated-STAT3 (upper panel) and STAT3 (lower panel). […] Thirty micrograms of whole cell extracts were resolved on 7.5% SDS-PAGE, electrotransferred to a nitrocellulose membrane, and probed for the phosphorylated-STAT3 (upper panel) and stripped and reprobed for STAT3 (middle panel) and β-actin (lower panel).
(§1) For detection of STAT proteins, whole-cell extracts were prepared by lysing the curcumin-treated cells in lysis buffer (20 mM Tris, pH 7.4, 250 mM NaCl, 2 mM EDTA, pH 8.0, 0.1% Triton-X100, 0.01 mg/ml aprotinin, 0.005 mg/ml leupeptin, 0.4 mM PMSF, and 4 mM NaVO4). Lysates were then spun at 14000 rpm for 10 min to remove insoluble material, and resolved on a 7.5% gel. After electrophoresis, the proteins were electrotransferred to a nitrocellulose membrane, blocked with 5% nonfat milk, and probed with anti-STAT antibodies (1:1000) overnight at 4° C. The blot was washed, exposed to HRP-conjugated secondary antibodies for 1 h, and finally examined by chemiluminescence (ECL, Amersham Pharmacia Biotech. Arlington Heights, Ill.).
Since IL-6 is a growth factor for multiple myeloma and induces STAT3 phosphorylation (5, 6, 15), whether curcumin could inhibit IL-6-induced STAT3 phosphorylation was examined. […] IL-6 induced phosphorylation of STAT3 as early as 5 min and began to decline at 60 minutes (FIG. 3B). RPMI 8226 cells were then incubated with curcumin for different times and examined for IL-6-inducible STAT3 phosphorylation.
Exposure of cells to curcumin for 4 hours was sufficient to completely suppress IL-6-induced STAT3 phosphorylation. Curcumin alone had no effect on STAT3 phosphorylation in these cells (data not shown).

U266 cells = assay: IL-6-induced proliferation of U266 cells (thymidine incorporation, MTT); type: cell-based, human; conditions: serum starved 12 h, IL-6 48 h
Protocol: (§2) FIGS. 7A-B show& that IL-6 induces proliferation of human multiple myeloma cells and curcumin inhibits it. […] Cell proliferation assays were performed as described below. Results are shown as mean (±s.d.) of percent [^3H] thymidine incorporation or percent proliferation by MTT of triplicate cultures compared to the untreated control.
(§3) The antiproliferative effects of curcumin against different multiple myeloma cell lines were determined by the MTT dye uptake method as described earlier (28). Briefly, the cells (5000/well) were incubated in triplicate in a 96-well plate in the presence or absence of indicated test samples in a final volume of 0.1 ml for 24 h at 37° C. […] The OD at 570 nm was measured using a 96-well multiscanner autoreader (Dynatech MR 5000), with the extraction buffer serving as blank. Percent cell viability cell viability was calculated using the following formula: Percent cell viability=(OD of the experiment samples/OD of the control)×100.
(§4) The antiproliferative effects of curcumin were also monitored by the thymidine incorporation method. […] Six hours before the completion of experiment, cells were pulse treated with 0.5 μCi [^3H]thymidine, and the uptake of [^3H]thymidine was monitored using a Matrix-9600 β-counter (Packard Instruments, Downers Grove, Ill.). […]
(§5) Whether curcumin suppresses the proliferative effects of IL-6 was determined.

MM.1 cells = assay: IL-6-induced proliferation of MM.1 cells; type: cell-based, human; conditions: serum starved 12 h, IL-6 48 h
Protocol: as §2, §3, §4, §5

MM.1R cells = assay: IL-6-induced proliferation of MM.1R cells; type: cell-based, human; conditions: serum starved 12 h, IL-6 48 h
Protocol: as §2, §3, §4, §5

RPMI 8226 cells = assay: IL-6-induced proliferation of RPMI 8226 cells; type: cell-based, human; conditions: serum starved 12 h, IL-6 48 h
Protocol: as §2
The antiproliferative effects of curcumin were also monitored by the thymidine incorporation method. For this, 5000 cells in 100 μl medium were cultured in triplicate in 96-well plates in the presence or absence of curcumin for 24 h. Six hours before the completion of experiment, cells were pulse treated with 0.5 μCi [^3H]thymidine, and the uptake of [^3H]thymidine was monitored using a Matrix-9600 β-counter (Packard Instruments, Downers Grove, Ill.).
To reconfirm previous reports (5, 6, 15, 31) that IL-6 induces proliferation of MM cells, U266, RPMI 8226, MM.1 and MM.1R were serum-starved for 12 h and then cultured them in the absence or presence of different concentrations of IL-6 for 48 h.

STAT3 phosphorylation [2] = assay: STAT3 phosphorylation in MM.1S and MM.1R cells after TNF, LT or IL-6 (Western blot); type: cell-based, human; conditions: IL-6 10 minutes (positive control)
Protocol: The cell proliferation assay was performed as described below. Results are shown as mean (±s.d. indicated by error bar) of percent [^3H] thymidine incorporation of triplicate cultures compared to the untreated control. […] Cells were treated with IL-6 for 10 minutes as a positive control for STAT3 phosphorylation. Thirty micrograms of whole cell extract was were resolved on 7.5% SDS-PAGE, electrotransferred to a nitrocellulose membrane, and probed for phosphorylated-STAT3 (upper panel), stripped, and reprobed for STAT3 (lower panel).
as §1
MM.1S and MM.1R cells were serum starved for 12 h and then treated with TNF or lymphotoxin in the serum free medium.

STAT3 phosphorylation [3] = assay: IL-6-induced STAT3 phosphorylation in JMAR cells (Western blot); type: cell-based, human; conditions: IL-6 10 ng/ml
Protocol: JMAR cells (2×10^6 cells) were treated with IL-6 (10 ng/ml) for the indicated time and whole cell extracts were prepared. These extracts (30 μg) were resolved on 7.5% SDS-PAGE, electrotransferred to a nitrocellulose membrane and probed for p-STAT3 (upper panel) and stripped and re-probed for STAT3 (lower panel). […] JMAR cells were pretreated with curcumin (50 μM) for indicated durations and stimulated with IL-6 (10 ng/ml) for 10 mins and whole cell extract prepared and probed as mentioned earlier.
JMAR cells were treated with IL-6 for different durations and the levels of p-STAT3 and STAT3 were examined. Treatment with IL-6 as early as 5 mins induced STAT3 phosphorylation in JMAR cells (FIG. 14A, upper panel). However, STAT3 levels were unaffected (FIG. 14A, lower panel).
Further, since IL-6 induced STAT3 phosphorylation in JMAR cells, the ability of curcumin to inhibit this STAT3 phosphorylation was also examined. JMAR cells were pretreated with curcumin for different durations and stimulated with IL-6 for 10 minutes. Both the status of p-STAT3 and STAT3 were determined in the whole cell extracts of these cells. Treatment with curcumin for as early as 30 minutes led to decline in the phosphorylation of STAT3 which declined further with increased exposure to curcumin. Exposure to curcumin for 2 hours inhibited STAT3 phosphorylation in JMAR cells (FIG. 14B, upper panel). The STAT3 levels were unaffected by this treatment (FIG. 14B, lower panel).

[4] = tested on: MDA 1986LN, JMAR and MDA 686LN cells; assay: IL-6-induced proliferation of human HNSCC cells (thymidine incorporation); type: cell-based; conditions: serum starved 12 hrs, IL-6 48 hrs
Protocol: Human head and neck squamous cell carcinoma cells MDA 1986LN, JMAR and MDA 686LN were serum starved for 12 hrs. These cells were then cultured with the indicated concentrations of IL-6 for 48 hrs in serum-free medium. Cell viability was determined by thymidine incorporation method.
The present invention also investigated the effect of IL-6 on the proliferation of human HNSCC cells such as MDA 1986LN, JMAR and MDA 686LN by thymidine incorporation method. These cells were serum starved for 12 hrs and then cultured with different concentrations of IL-6 for 48 hrs in serum-free medium.

STAT3 phosphorylation [5] = assay: Constitutive STAT3 phosphorylation in U266 cells (Western blot); type: cell-based, human
Protocol: U266 cells (2×10^6) were treated with the indicated concentrations of curcumin for 1 h, or treated with 50 μM curcumin for the indicated durations and levels of phosphorylated-STAT3 (upper panel) and STAT3 (lower panel) were examined in whole cell extracts by Western Blotting. […] U266 cells (2×10^6) were treated with 50 μM curcumin for indicated durations, and examined for phosphorylated and nonphosphorylated-STAT3, and STAT5. […] U266 cells (2×10^6) were preincubated with curcumin (50 μM) for indicated durations before treatment with IFN-α (10 ng/ml) for additional 30 min and then examined for phosphorylated and nonphosphorylated-STAT1.
U266 cells (2×10^6 cells) were treated with 50 μM curcumin for the indicated durations (left panels) or treated for 1 h and washed with PBS two times to remove curcumin before resuspending in fresh medium. Cells were removed at indicated times and lysed to prepare the whole cell extract (right panels). Thirty micrograms of whole cell extracts were resolved on 7.5% SDS-PAGE, electrotransferred to a nitrocellulose membrane, probed for the phosphorylated-STAT3 (upper panels) and stripped and reprobed for STAT3 (middle panels) and β-actin (lower panels).
Thirty micrograms of whole-cell extract was resolved on 7.5% SDS-PAGE, electrotransferred to a nitrocellulose membrane, probed for the phospho-STAT3 (upper panel), stripped, and reprobed for STAT3 (middle panel) and β-actin (lower panel).
as §1
Whether curcumin inhibits the constitutive STAT3 phosphorylation in U266 was investigated. U266 cells were incubated either with different concentrations of curcumin for 1 h or with 50 μM curcumin for different times. Curcumin inhibited the constitutively active STAT3 in a dose-(FIG. 1A) and time-(FIG. 1B) dependent manner. Curcumin-induced inhibition could be observed as early as 10 min and with a concentration as low as 10 μM.
Whether curcumin-induced inhibition of STAT3 phosphorylation was reversible was further examined. U266 cells were first treated for 60 min with curcumin, and then the cells were washed twice with PBS to remove curcumin. The cells were then cultured in the fresh medium for various durations, and the levels of phosphorylated STAT3 were measured.
In comparison, treatment of cells with 50 μM curcumin for 60 minutes was sufficient to inhibit STAT3 phosphorylation (see FIGS. 1A and 1B).

multiple myeloma cells = assay: Proliferation of multiple myeloma cells, curcumin vs AG490 (data not shown); type: cell-based, human; conditions: 100 μM, 24 hours (data not shown)
STAT3 phosphorylation [6] = assay: Constitutive STAT3 phosphorylation in MDA 1986LN cells (Western blot); type: cell-based, human; conditions: AG490 100 μM, 8 hrs
Protocol: TU167, MDA 1986LN, TU 686, MDA 686LN and JMAR cells (2×10^6 cells) were lysed and whole cell extracts (30 μg) were resolved on 7.5% SDS-PAGE, electrotransferred to a nitrocellulose membrane and probed for phosphorylated-STAT3 (p-STAT3) and total STAT3 proteins. […] MDA 1986LN cells (2×10^6 cells) were treated with curcumin (50 μM) for indicated durations or with indicated concentrations of curcumin for 1 h and levels of p-STAT3 (upper panels) and STAT3 (lower panels) were examined in whole cell extracts by Western blotting.
MDA 1986LN cells (2×10^6 cells) were treated with curcumin (50 μM) for the indicated durations (upper panels) or treated for 1 h and washed twice with PBS to remove curcumin before re-suspending in fresh medium. Cells were removed at indicated times and lysed to prepare the whole cell extract (lower panels). The whole cell extracts (30 μg) were resolved on 7.5% SDS-PAGE, electrotransferred to a nitrocellulose membrane, probed for the p-STAT3 (upper panels) and striped and reprobed for STAT3 (lower panels).
MDA 1986LN cells (2×10^6 cells) were treated with indicated concentrations of AG490 for 8 h and whole extracts prepared. These whole-cell extracts (30 μg) were resolved on 7.5% SDS-PAGE, electrotransferred to a nitrocellulose membrane, probed for p-STAT3 (upper panel), striped and reprobed for STAT3 (middle panel) and β-actin (lower panel). […] The cells were treated with AG490 (100 μM) for the indicated durations and whole cell extracts prepared and analyzed as mentioned earlier. FIG. 15C compares the effect of curcumin and AG490 on proliferation of MDA 1986LN cells by MTT assay.
Since STAT3 was constitutively phosphorylated in MDA 1986LN cells, the ability of curcumin to inhibit the constitutive STAT3 phosphorylation was examined. MDA 1986LN cells were treated either with curcumin (50 μM) for different durations or with different concentrations of curcumin for 1 h and the p-STAT3 levels and STAT3 levels were determined. Curcumin inhibited the constitutively active STAT3 in a time-(FIG. 11B) and a dose-(FIG. 11C) manner. This curcumin-induced inhibition could be observed as early as 30 min and with a concentration as low as 25 μM.
MDA 1986LN cells were treated with curcumin for indicated times or for 1 h and the cells were washed twice with PBS to remove curcumin. The cells were then cultured in media for various durations and the levels of phosphorylated STAT3 were determined. […] However, the STAT3 levels were unaffected by curcumin treatment.
The concentration and the exposure time for AG490 to inhibit STAT3 phosphorylation in MDA 1986LN cells were determined. These cells were incubated with either different concentrations of AG490 or with 100 μM of AG490 for different durations and the levels of p-STAT3 and STAT3 were assessed.

STAT3 phosphorylation [7] = assay: Constitutive STAT3 phosphorylation in U266 cells (Western blot); type: cell-based, human; remark: listed apart in the source

| Compound | earliest time of IL-6-induced phosphorylation of STAT3 (STAT3 phosphorylation [1]) | time at which IL-6-induced STAT3 phosphorylation began to decline (STAT3 phosphorylation [1]) | proliferation of U266 cells induced by IL-6 (U266 cells) | proliferation of MM.1 cells induced by IL-6 (MM.1 cells) | proliferation of MM.1R cells induced by IL-6 (MM.1R cells) | proliferation response of RPMI 8226 cells to IL-6 (RPMI 8226 cells) | induction of STAT3 phosphorylation (STAT3 phosphorylation [2]) | earliest time of IL-6-induced STAT3 phosphorylation (STAT3 phosphorylation [3]) | proliferation of human HNSCC cells induced by IL-6 [4] | dose needed to suppress STAT3 phosphorylation (comparison AG490 vs curcumin) (STAT3 phosphorylation [5]) | proliferation of multiple myeloma cells (multiple myeloma cells) | inhibition of STAT3 phosphorylation (STAT3 phosphorylation [6]) | exposure needed to completely inhibit STAT3 phosphorylation (STAT3 phosphorylation [7]; 100 μM AG490) | dose needed to completely inhibit STAT3 phosphorylation (STAT3 phosphorylation [7]; 8 h) |
| --- | --- | --- | --- | --- | --- | --- | --- | --- | --- | --- | --- | --- | --- | --- |
| IL-6: bacteria-derived recombinant human IL-6 provided by Sandoz Pharmaceutical | 5 min | 60 min | induced proliferation | induced proliferation | induced proliferation | did not respond | induced STAT3 phosphorylation in both cell lines | 5 min | induced proliferation of MDA 1986LN, JMAR and MDA 686LN cells | – | – | – | – | – |
| N#C/C(=C/c1ccc(O)c(O)c1)C(=O)NCc1ccccc1 [AG490] | – | – | – | – | – | – | – | – | – | 100 µM | no effect | completely inhibited | 8 h | 100 µM |
